According to patent US20250127774A1, “COMPOUNDS FOR LABELLING NUCLEIC ACID AND USES THEREOF” (THE ROYAL INSTITUTION FOR THE ADVANCEMENT OF …, priority 2022, published 2025):

Experiments:
[1] = tested on: duplex DNA containing VdU (vinyl-modified ODN); assay: Kinetic measurements with ODNs (DNA-templated PINK-VdU reaction); conditions: 50 mM aq. NaOAc buffer pH 5.2 (0.8% DMSO)
Excerpt: A) Relative fluorescence units (RFU) of PINK upon reaction with vinyl-modified ODN versus time. […] B) Normalized increase of fluorescence. C) Plot of the observed rates k′ against PINK concentration. The slope yields the rate constant k.
To characterize DNA-templated PINK-VdU reactions, a VdU-containing, palindromic 17-mer DNA oligonucleotide “ODN1” was synthesized (Table 1). The DMT-protected VdU phosphoramidite S4 (Scheme 2)^[51] was incorporated into the oligomer utilizing standard solid phase supported DNA synthesis. ODN1 was purified using reverse-phase HPLC and annealed with a complimentary strand to form a duplex. […] By tracking the fluorescence changes under pseudo-first order conditions (FIG. 8), an apparent rate constant k=590 M^−1 s^−1 was determined for the reaction between PINK and the duplex DNA containing VdU. […]
Kinetic Measurements with ODNs. Second-order rate constants for the reaction between vinyl-modified ODN and PINK were determined under pseudo first order conditions employing an excess of the tetrazine. […] Measurements were performed on a SpectraMax M5 plate reader (Molecular Devices, Sunnyvale, CA, USA) in 384 well plates (Greiner bio-one, cat-#871906; 40 μL per well). […] Samples were measured over the course of 1 h in intervals of 45 s. […] Reactions rates were calculated using pseudo first order approximations fitting the measurements to mono exponential equations. […]

PINK stability test = format: physicochemical; conditions: 20 μM PINK, 1 mM b.p. CT-DNA, PBS pH 7.4 (10% DMSO)
Experimental: B) Fluorescence changes (excitation: 500 nm, emission: 590 nm; 515 nm cutoff filter) of 20 μM PINK in the presence of 1 mM b.p. CT-DNA (50 eq) in PBS pH 7.4 (10% DMSO) followed by addition of 5-norbornene-2-methanol (2 mM, 100 eq).
PINK Stability Test. Fluorescence changes (excitation: 500 nm, emission: 590 nm; 515 nm cutoff filter) of 20 μM PINK were monitored in the presence of 1 mM base pairs of calf thymus (CT) DNA (50 eq) in PBS pH 7.4 (10% DMSO) followed by addition of 5-norbornene-2-methanol (2 mM, 100 eq). Measurements were conducted on a SpectraMax M5 plate reader (Molecular Devices, Sunnyvale, CA, USA) in 1 cm path-length quartz cuvettes.

HeLa and U2OS cells = assay: Resazurin assay, toxicity evaluation of PINK; format: cell-based; conditions: low micromolar concentrations of PINK (0-12.5 μM), 24 and 72 h
Experimental: Cellular respiratory activity was evaluated by measuring the fluorescence emission after addition of resazurin ([…]).
Resazurin Assay. HeLa or U2OS cells were seeded in 96-well plates at a density of 7,500 cells per well and incubated overnight. The supernatant was removed and 100 μL fresh media containing PINK (0-12.5 μM; 0.1% DMSO) was added. Cells were grown for 24 or 72 h, at which point 10 μL resazurin (880 μM in PBS; final concentration: 80 μM) was added. After incubation for 3 h, the fluorescence emission at 590 nm (excitation 560 nm; cut-off: 575 nm) was measured using a SpectraMax M5 plate reader (Molecular Devices, Sunnyvale, CA, USA). LC50 values were determined from two independent replicates.

[2] = tested on: vinyl-modified RNA in Hela cells; assay: Metabolic RNA labeling; format: cell-based; conditions: VU 2.5 mM 24 h, PINK 100 μM 5 h; diminished by RNase A/T1
Experimental: The labeling approach was extended to vinyl-modified RNA. Hela cells were seeded in ibidi® 8-well plates (5.000 cells per well) and allowed to settle overnight. Cells were then incubated with 5-vinyl uridine (VU, 2.5 mM) for 24 h. After 19 h, PINK (100 μM final concentration) was added for 5 h. […]. Cells were fixed and optionally treated with RNase A/T1 mix (100 μg/mL RNase A; 250 U/mL RNase T1). Total cellular DNA was counterstained with Hoechst 33342 (5 μg/mL). Images were acquired on confocal microscopes under 20× (a) or 63× (b) magnification (FIG. 13).
Metabolic RNA Labeling. Hela cells were seeded in μ-slide 8-well chambers (ibidi®), cat-#: 80826) at a density of 2.0×10^4 cells per mL (5.000 cells per well) and allowed to settle overnight. Cells were aspirated and 5-vinyl uridine (VU, 2.5 mM, 0.1% DMSO) was added. Cells were incubated for 19 h, at which point PINK (100 μM; 0.2% DMSO final concentrations) was added. After additional 5 h, cells were aspirated, washed with PBS, and fixed with 3.7% PFA in PBS for 15 min. Cells were quenched with 50 mM glycine/NH4Cl for 5 min, washed with PBS, and permeabilized twice with 0.2% Triton X-100 in PBS for 5 min each followed by washing with PBS, twice 100 mM NaOAc buffer (pH 5.2), 10% DMSO in PBS, and PBS for 5 min each. […]

Compound: Cc1nnc(-c2ccc3cc4ccc(N(C)C)cc4nc3c2)nn1 [PINK]
- apparent rate constant k, reaction with duplex DNA containing VdU ([1]; 4 μM vinyl-modified ODN, PINK 3-5 eq): 590 M⁻¹ s⁻¹
- stability of PINK under control conditions (without vinyl-modified ODN) ([1]; 12-20 μM PINK, 1 h): full stability
- degradation of PINK on extended incubation with unmodified DNA (PINK stability test): little-to-no degradation
- toxicity to cells (cellular respiratory activity, resazurin) (HeLa and U2OS cells): not toxic to cells even at longer incubation times
- fluorescent signal of live-cell metabolic RNA labeling [2]: strong fluorescent signal
